What was measured:
P-AKTSer473 [1] = assay: Patient tissues (healthy endometrium, adenomyosis or endometriosis lesions) treated in vitro, Western blot of P-AKT; type: cell-based, human; settings: healthy endometrium and lesions of adenomyosis or endometriosis from patients, exposed in vitro during 24 hours to different doses; Western blot P-AKTSer473 (Figure 3B)
Method: (§1) Tissues were crushed and then lysed in RIPA lysis buffer supplemented with phosphatase and protease inhibitors. Protein concentrations were determined through the bicinchoninic acid method (Pierce). Protein extracts were analyzed by Western blot where the transfer membrane was incubated with a primary antibody followed by the appropriate peroxidase-conjugated secondary antibody (dilution 1:10,000). Chemiluminescence were acquired using a Chemidoc MP and bands were quantitated with the Image Lab Software (Bio-Rad Laboratories).
as §1, with “Tissues collected from patients (endometrium, adenomyosis, endometriosis and myoma). Tissues were cultivated in media and treated during 24 hours with either DMSO, alpelisib or ST420 (Compound having formula I and/or its derivatives). Then, they” for “Tissues”, “and” for “and then”
PIK3CA pharmacological inhibitors are developed for oncology and other medical situations. […]

P-AKTSer473 [2] = assay: Patient myometrium and myoma samples treated in vitro, Western blot of P-AKT; type: cell-based, human; settings: myometrium and myoma samples from patients treated in vitro 24 hours at different doses; Western blot P-AKTSer473 (Figure 4)
Method: as §1
as §1, with “Tissues collected from patients (endometrium, adenomyosis, endometriosis and myoma). Tissues were cultivated in media and treated during 24 hours with either DMSO, alpelisib or ST420 (Compound having formula I and/or its derivatives). Then, they” for “Tissues”, “and” for “and then”, “Laboratories). […]” for “Laboratories).”

[3] = patients treated with alpelisib; cited from earlier work

Cc1nc(NC(=O)N2CCC[C@H]2C(N)=O)sc1-c1ccnc(C(C)(C)C(F)(F)F)c1 [alpelisib]
phosphorylation of AKT (P-AKTSer473 [1]): able to shut down the phosphorylation of AKT | inhibition of the PIK3CA pathway in myoma (P-AKTSer473 [2]): able to inhibit the pathway in myoma | insulin resistance which can lead to diabetes, share of patients [3]: about 30%

From EP4643858A1, “METHODS AND PHARMACEUTICAL COMPOSITION FOR THE TREATMENT OF UTERINE DISEASE” (Institut National de la Santé et de la Recherche Médicale, priority 2024, dated 2025)
